Measured values from patent publication US12528786B2, “Plasma kallikrein inhibitors” (Merck Sharp & Dohme LLC, priority 2020, dated 2026).

These compounds were tested against T1, Human plasma kallikrein (Homo sapiens, UniProt P03952) (assay: Kallikrein Assay (fluorogenic substrate hydrolysis, AFC release)). Conditions: purified Human plasma kallikrein 0.5 nM; substrate Acetyl-K—P—R-AFC 100 mM; 50 mM HEPES pH 7.4.
T1 construct: yields a heavy chain (371 amino acids) and a light chain (248 amino acids); purchased Enzyme Research Laboratories
T1 sequence (P03952 391-638 limits assumed): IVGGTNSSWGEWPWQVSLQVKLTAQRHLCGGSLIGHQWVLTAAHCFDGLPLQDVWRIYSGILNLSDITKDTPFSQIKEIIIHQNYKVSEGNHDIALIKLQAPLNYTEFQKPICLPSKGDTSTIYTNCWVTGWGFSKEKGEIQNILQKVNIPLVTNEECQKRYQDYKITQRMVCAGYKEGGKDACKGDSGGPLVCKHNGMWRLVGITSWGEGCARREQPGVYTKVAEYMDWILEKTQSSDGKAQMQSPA
T1 sequence (P03952 20-390 partner limits assumed): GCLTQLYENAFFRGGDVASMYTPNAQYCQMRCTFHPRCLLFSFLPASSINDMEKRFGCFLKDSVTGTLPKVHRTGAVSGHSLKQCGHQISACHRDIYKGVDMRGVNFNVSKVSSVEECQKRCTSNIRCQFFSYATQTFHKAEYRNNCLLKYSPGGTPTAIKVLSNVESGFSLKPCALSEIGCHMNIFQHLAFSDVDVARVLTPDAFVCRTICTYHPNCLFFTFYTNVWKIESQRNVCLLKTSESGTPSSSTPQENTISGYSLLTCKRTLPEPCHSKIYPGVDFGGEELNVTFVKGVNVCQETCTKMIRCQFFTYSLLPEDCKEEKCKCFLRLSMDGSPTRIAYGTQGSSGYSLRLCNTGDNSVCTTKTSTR
Type: biochemical
How it was run: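 Purified human plasma kallikrein (0.5 nM final) with Acetyl-K-P-R-AFC substrate (final ≤0.2 Km) in 50 mM HEPES pH 7.4, 150 mM NaCl, 5 mM CaCl2, 0.1% PEG 8000, after enzyme–inhibitor equilibration; room temperature or 37° C. AFC fluorescence (405 Ex/510 Em nm) under linear conditions; IC50 by four-parameter fit, Ki via Cheng-Prusoff.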

IC50 [nM]	Compound
6.9	Cc1ccc(C#N)c([C@H]2C[C@@H](NC(=O)c3cn(C(C)c4cnc(N5C[C@H]6C[C@H]6C5=O)c(C)n4)nn3)C2)n1 (single isomer, unassigned) [Example 116, N-((cis)-3-(3-cyano-6-methylpyridin-2-yl)cyclobutyl)-1-((S or R)-1-(6-methyl-5-((1R,5S)-2-oxo-3-azabicyclo[3.1.0]hexan-3-yl)pyrazin-2-yl)ethyl)-1H-1,2,3-triazole-4-carboxamide]
8.1	C[C@H](c1cnc(N2C[C@H]3C[C@H]3C2=O)nc1)n1cc(C(=O)N[C@H]2C[C@@H](c3cc(Cl)ccc3C#N)C2)nn1 (single isomer, unassigned) [Example 77]
0.9	Cc1c([C@H](C)n2cc(C(=O)N[C@H]3C[C@@H](c4cc(Cl)ccc4C(N)=O)C3)nn2)cnc(N2C[C@H]3C[C@H]3C2=O)c1C [Example 158]
105	Cc1nc(N2C[C@H]3C[C@H]3C2=O)ncc1C(C)n1cc(C(=O)N[C@H]2C[C@@H](c3cc(Cl)ccc3C#N)C2)nn1 (single isomer, unassigned) [Example 80, N-((cis)-3-(5-chloro-2-cyanophenyl)cyclobutyl)-1-((R or S)-1-(4-methyl-2-((1R,5S)-2-oxo-3-azabicyclo[3.1.0]hexan-3-yl)pyrimidin-5-yl)ethyl)-1H-1,2,3-triazole-4-carboxamide]
3.7	CC(c1ncc(N2C[C@H]3C[C@H]3C2=O)cc1F)n1cc(C(=O)N[C@H]2C[C@@H](c3cc(Cl)ccc3C#N)C2)cn1 (single isomer, unassigned) [Example 26, N-((cis)-3-(5-chloro-2-cyanophenyl)cyclobutyl)-1-((R or S)-1-(3-fluoro-5-((1R,5S)-2-oxo-3-azabicyclo[3.1.0]hexan-3-yl)pyridin-2-yl)ethyl)-1H-pyrazole-4-carboxamide]
2.4	Cc1ccc(C#N)c([C@H]2C[C@@H](NC(=O)c3cnn(C(C)c4cnc(N5C[C@H]6C[C@H]6C5=O)c(C)n4)c3)C2)n1 (single isomer, unassigned) [Example 51, N-((cis)-3-(3-cyano-6-methylpyridin-2-yl)cyclobutyl)-1-((R or S)-1-(6-methyl-5-((1R,5S)-2-oxo-3-azabicyclo[3.1.0]hexan-3-yl)pyrazin-2-yl)ethyl)-1H-pyrazole-4-carboxamide]
1.6	Cc1nc([C@@H](C)n2cc(C(=O)N[C@H]3C[C@@H](c4cc(Cl)ccc4C#N)C3)nn2)cnc1N1C[C@H]2CC2C1=O (single isomer, unassigned) [Example 84]
15.7	Cc1cc(N2C[C@H]3C[C@H]3C2=O)ncc1C(C)n1cc(C(=O)N[C@H]2C[C@@](F)(c3cc(Cl)ccc3C#N)C2)nn1 (single isomer, unassigned) [Example 76, N-(cis)-3-(5-chloro-2-cyanophenyl)-3-fluorocyclobutyl)-1-((S or R)-1-(4-methyl-6-((1R,5S)-2-oxo-3-azabicyclo[3.1.0]hexan-3-yl)pyridin-3-yl)ethyl)-1H-1,2,3-triazole-4-carboxamide]
3.2	COc1cc(C(C)n2cc(C(=O)N[C@H]3C[C@@H](c4cc(Cl)ccc4C#N)C3)nn2)cnc1N1C[C@H]2C[C@H]2C1=O (single isomer, unassigned) [Example 102, N-((cis)-3-(5-chloro-2-cyanophenyl)cyclobutyl)-1-((S or R)-1-(5-methoxy-6-((1R,5S)-2-oxo-3-azabicyclo[3.1.0]hexan-3-yl)pyridin-3-yl)ethyl)-1H-1,2,3-triazole-4-carboxamide]
414	Cc1c(C(C)n2cc(C(=O)NC3CC(c4cccc(Cl)c4)C3O)nn2)cnc(N2C[C@H]3C[C@H]3C2=O)c1F (single isomer, unassigned) [Example 126, N-((1S,2S,3S or 1R,2R,3R)-3-(3-chlorophenyl)-2-hydroxycyclobutyl)-1-((S or R)-1-(5-fluoro-4-methyl-6-((1R,5S)-2-oxo-3-azabicyclo[3.1.0]hexan-3-yl)pyridin-3-yl)ethyl)-1H-1,2,3-triazole-4-carboxamide]
8.2	COCc1nn(C(C)c2cnc(N3C[C@H]4C[C@H]4C3=O)cc2C)cc1C(=O)N[C@H]1C[C@@H](c2cc(Cl)ccc2C#N)C1 (single isomer, unassigned) [Example 50, N-((cis)-3-(5-chloro-2-cyanophenyl)cyclobutyl)-3-(methoxymethyl)-1-((S or R)-1-(4-methyl-6-((1R,5S)-2-oxo-3-azabicyclo[3.1.0]hexan-3-yl)pyridin-3-yl)ethyl)-1H-pyrazole-4-carboxamide]
0.6	[2H][C@]1(NC(=O)c2cn([C@@H](C)c3cnc(N4C[C@H]5C[C@H]5C4=O)cc3C)nn2)C[C@@H](c2cc(Cl)ccc2C#N)C1 [Example 148, N-((cis)-3-(5-chloro-2-cyanophenyl)cyclobutyl-1-d)-1-((S)-1-(4-methyl-6-((1R,5S)-2-oxo-3-azabicyclo[3.1.0]hexan-3-yl)pyridin-3-yl)ethyl)-1H-1,2,3-triazole-4-carboxamide]
0.7	Cc1cc(N2C[C@H]3C[C@H]3C2=O)ncc1[C@@H](C)n1cc(C(=O)NC2CC(c3cc(Cl)ccc3C#N)C2)c(C(C)O)n1 (single isomer, unassigned) [Example 170]
1.7	Cc1ccc(C#N)c([C@H]2C[C@@H](NC(=O)c3cn(C(C)c4cnc(N5C[C@H]6C[C@H]6C5=O)cc4C)nn3)C2)c1 (single isomer, unassigned) [Example 67, N-((cis)-3-(2-cyano-5-methylphenyl)cyclobutyl)-1-((S or R)-1-(4-methyl-6-((1R,5S)-2-oxo-3-azabicyclo[3.1.0]hexan-3-yl)pyridin-3-yl)ethyl)-1H-1,2,3-triazole-4-carboxamide]
26	Cc1cc(N2C[C@H]3C[C@H]3C2=O)ncc1C(C)n1cc(C(=O)N[C@@H]2CC[C@H](c3cc(Cl)ccc3C#N)C2)nn1 (single isomer, unassigned) [Example 63, N-((1R,3S)-3-(5-chloro-2-cyanophenyl)cyclopentyl)-1-((S or R)-1-(4-methyl-6-((1R,5S)-2-oxo-3-azabicyclo[3.1.0]hexan-3-yl)pyridin-3-yl)ethyl)-1H-1,2,3-triazole-4-carboxamide]
0.9	COc1cc(N2C[C@H]3C[C@H]3C2=O)ncc1[C@H](C)n1cc(C(=O)N[C@H]2C[C@@H](c3cc(Cl)ccc3C#N)C2)cn1 (single isomer, unassigned) [Example 11]
3.6	Cc1cc(N2C[C@H]3C[C@H]3C2=O)ncc1C(C)n1cc(C(=O)N[C@H]2C[C@@](C)(c3cc(Cl)ccc3C#N)C2)cn1 (single isomer, unassigned) [Example 10, N-((cis)-3-(5-chloro-2-cyanophenyl)-3-methylcyclobutyl)-1-((S or R)-1-(4-methyl-6-((1R,5S)-2-oxo-3-azabicyclo[3.1.0]hexan-3-yl)pyridin-3-yl)ethyl)-1H-pyrazole-4-carboxamide]
839	Cc1c(C(C)n2cc(C(=O)NC3CC(c4cccc(Cl)c4)C3O)nn2)nnc(N2C[C@H]3C[C@H]3C2=O)c1C (single isomer, unassigned) [Example 129, N-((1R,2R,3R or 1S,2S,3S))-3-(3-chlorophenyl)-2-hydroxycyclobutyl)-1-((R or S)-1-(4,5-dimethyl-6-((1R,5S)-2-oxo-3-azabicyclo[3.1.0]hexan-3-yl)pyridazin-3-yl)ethyl)-1H-1,2,3-triazole-4-carboxamide]
1.4	Cc1ncc(C(C)n2cc(C(=O)N[C@H]3C[C@@H](c4cc(Cl)ccc4C#N)C3)nn2)cc1N1C[C@H]2C[C@H]2C1=O (single isomer, unassigned) [Example 139, N-((cis)-3-(5-chloro-2-cyanophenyl)cyclobutyl)-1-((R or S)-1-(6-methyl-5-((1R,5S)-2-oxo-3-azabicyclo[3.1.0]hexan-3-yl)pyridin-3-yl)ethyl)-1H-1,2,3-triazole-4-carboxamide]
1.8	COc1c(N2C[C@H]3C[C@H]3C2=O)ncc(C(C)n2cc(C(=O)N[C@H]3C[C@@H](c4cc(Cl)ccc4C#N)C3)cn2)c1C (single isomer, unassigned) [Example 43, N-((cis)-3-(5-chloro-2-cyanophenyl)cyclobutyl)-1-((R or S)-1-(5-methoxy-4-methyl-6-((1R,5S)-2-oxo-3-azabicyclo[3.1.0]hexan-3-yl)pyridin-3-yl)ethyl)-1H-pyrazole-4-carboxamide]
11.3	Cc1ncc(C(C)n2cc(C(=O)N[C@H]3C[C@@H](c4cc(Cl)ccc4C#N)C3)nn2)cc1N1C[C@H]2C[C@H]2C1=O (single isomer, unassigned) [Example 140, N-((cis)-3-(5-chloro-2-cyanophenyl)cyclobutyl)-1-((S or R)-1-(6-methyl-5-((1R,5S)-2-oxo-3-azabicyclo[3.1.0]hexan-3-yl)pyridin-3-yl)ethyl)-1H-1,2,3-triazole-4-carboxamide]
15.9	Cc1cc(N2C[C@H]3C[C@H]3C2=O)ncc1C(C)n1cc(C(=O)N[C@H]2C[C@@](C)(c3cc(Cl)ccc3C#N)C2)nn1 (single isomer, unassigned) [Example 64, N-((cis)-3-(5-chloro-2-cyanophenyl)-3-methylcyclobutyl)-1-((R or S)-1-(4-methyl-6-((1R,5S)-2-oxo-3-azabicyclo[3.1.0]hexan-3-yl)pyridin-3-yl)ethyl)-1H-1,2,3-triazole-4-carboxamide]
27.5	Cc1ccc(C#N)c([C@H]2C[C@@H](NC(=O)c3cn(C(C)c4cnc(N5C[C@H]6C[C@H]6C5=O)c(C)c4C)nn3)C2)n1 (single isomer, unassigned) [Example 98, N-((cis)-3-(3-cyano-6-methylpyridin-2-yl)cyclobutyl)-1-((R or S)-1-(4,5-dimethyl-6-((1R,5S)-2-oxo-3-azabicyclo[3.1.0]hexan-3-yl)pyridin-3-yl)ethyl)-1H-1,2,3-triazole-4-carboxamide]
